Test results: patent US8895522B2, “Composition and method for the prevention, treatment and/or alleviation of an inflammatory disease” (Index Pharmaceuticals AB, priority 2005, dated 2014)
“Also recorded” adds a separate entry of the source.

Experiments:
[1] = system: LPS induced airway inflammation in mice; assay: First animal study: LPS-induced airway inflammation in mice, analysis of leukocytes in BALF; assay type: in vivo, C57BL/6 mice
Method: C57BL/6 mice were purchased from Bomholtgaard, Ry, Denmark. Animals were fed with standard chow and water ad libitum and allowed to acclimatize for at least 7 days in an accredited animal facility before use. In all experiments female mice of ages between 9-11 weeks were used. All experiments were approved by the local ethical committee for animal experiments in Umea, Sweden.
Bacterial endotoxin, LPS (Escherichia coli 0128:B12, Sigma, St. Louis, Mo.) was administered to anaesthetised mice (enflurane) by tracheal instillation in a total volume of 50 μl in a concentration of 5 μg. Control mice were given solvent alone (endotoxin-free distilled water). Through previous experiments the optimum concentration of LPS was determined to be 5 μg.
The mice were sacrificed by cervical dislocation 20 h after LPS instillation and their tracheae was cannulated with polyethylene tubing. Bronchoalveolar 20 lavage (BAL) was performed using 1-ml aliquots of ice-cold Hanks balanced salt solution to a recovered volume of 4 ml. Total number of leucocytes in bronchoalveolar lavage fluid (BALF) was counted using a Bürker chamber and trypan blue solution. Differential cell counts were determined on duplicate cytocentrifuged preparations stained with May-Grünewald Gemisa. Three 25 hundred cells were counted from each slide and the percentage of neutrophils determined.
Mice were treated with an experimental oligonucleotide (SEQ.ID.NO 3, in concentrations of 25 μg, 100 μg or 150 μg. The oligonucleotide was administrated by tracheal instillation to anaesthetised mice in a total volume of 50 μl 18 h prior to instillation of 5 μg LPS. Control mice received 50 μl endotoxin-free distilled water.
To compare the effect of the oligonucleotide to conventional treatment with anti-inflammatory corticosteroids, one group of mice received dexamethasone (Sigma St Louis, Mo.). Dexamethasone (10 mg/kg body weight) dissolved in PBS was 6(12) injected intraperitoneally (i.p) into mice 1 h prior LPS exposure. […]
The results are expressed as mean+standard error of the mean (SEM). […]

[2] = system: LPS induced airway inflammation in mice; assay: Second LPS induced asthma study in mice, BALF cell counts; assay type: in vivo; details: single dose 150 ug tracheal instillation 18 h prior to LPS; BALF 20 h; p=0.005
Method: As with example 2, aim of the study was to examine the pharmaceutical effects of SEQ. ID. NO. 3 using airway inflammation as disease endpoint, and to compare the efficacy with that of corticosteroids. This study included larger numbers of animals per group to increases statistical significance. The induction of LPS induced asthma and the protocol of analyses was conducted as described in example 2.
Briefly, mice were treated with an SEQ.ID.NO 3 (150 μg/animal) administered by tracheal instillation 18 h prior to challenge with 5 μg LPS. One group of mice represented healthy untreated individuals. Control mice were given solvent only (H2O) and LPS. One group received dexamethasone (5 mg/kg) one hour before LPS instillation and one group were given a combination treatment. Analysis of BALF was performed 20 hours after the last treatment. Total number of cells in BALF and number of neutrophils is shown. Data is expressed as mean±SD. ***=p<0.001 and **=p<0.01, in treated groups vs the control group (one-way ANOVA and Bonferroni post hoc test). Calculations were performed by SPSS software (12.0). n=6 in all groups.

[3] = system: LPS-induced airway inflammation in mice; assay: Third LPS induced asthma study in mice, BALF cell counts; assay type: in vivo; details: for influx of leukocytes in BALF compared to the control group / influx of neutrophils in BALF compared to the control group: 150 μg/animal, significance if the non-responding control individual is excluded; for influx of leukocytes in BALF compared to the control group: FIG. 7; for influx of neutrophils in BALF compared to the control group: FIG. 8; for number of infiltrating inflammatory cells in the BAL fluid: oligonucleotides 150 μg/animal tracheal 18 h prior to LPS, dexamethasone 5 mg/kg i.p. 1 h before, FIG. 6
Method: As with examples 1 and 2, aim of the study was to examine the pharmaceutical effects of SEQ. ID. NO. 3 using airway inflammation as disease endpoint, and to compare the efficacy with that of corticosteroids. In addition, a number of control oligonucleotides were included being SEQ.ID.NO 4, and SEQ.ID.NO 7. The induction of LPS induced asthma and the protocol of analyses was conducted as described in Example 2.
Briefly, LPS-induced airway inflammation in mice was treated with SEQ.ID.NOs 3, 4 and 7 (150 μg/animal) administered by tracheal instillation 18 h prior to challenge with 5 μg LPS. The untreated group represents healthy individuals and mice in the control group were given solvent only (H2O+LPS). The control treatment of dexamethasone (5 mg/kg, i.p.) was given one hour before LPS instillation. Analysis of BAL fluid was performed 20 hours after LPS instillation. The total number of leukocytes and neutrophils in BAL fluid is shown. Data expressed as mean±SD (n=6). ***p<0.001, *p<0.05, using One-way ANOVA with Dunnett's post hoc corrections versus control group.

murine spleen cells [4] = assay: Induction of IL-10 from murine spleen cells (ELISpot); assay type: cell-based; details: mouse splenocytes, 48 hours incubation; for induction of IL-10 (positive spots per well): FIG. 9
Method: (§1) The spleen was excised from a test animal. A single cell suspension was prepared using a nylon cell strainer (100 μm). The cells were washed once in complete RPMI medium at 1200 rpm for 7-10 minutes, whereupon the supernatant was poured off and the cells resuspended. 1 ml of “red blood cell lysing buffer” was added, and the mixture incubated for 1-2 minutes at RT. 5 ml of complete RPMI was added and the mixture centrifuged as above (C2).
(§2) The supernatant was poured off, the pellet resuspended and another 5 ml of complete RPML added. The cells were counted by dilution in trypan blue, so that between 50-100 cells were counted in the area.
(§3) Approximately 500,000 mouse splenocyte cells per well were incubated for 48 hours in the presence of the different oligonucleotides at the concentrations indicated. Specifically, SEQ.ID.NO 3, SEQ.ID.NO 4, and SEQ.ID.NO 7. Following incubation the wells were developed according to the kit suppliers recommendations and the average number of positive spots per well were determined using a AID ELISpot reader system, (Strassberg Germany).
(§4) Elispot assays where performed according to the manufactures recommended guidelines (MabTech) and the plates were analyzed using an AID ELISpot reader system (Autoimmun Diagnostika GmbH, Strassberg, Germany).

murine spleen cells [5] = assay: Induction of IFN-gamma from murine spleen cells (ELISpot); assay type: cell-based; details: mouse splenocytes, 48 hours incubation, FIG. 10
Method: as §1, §2, §3
Regarding the production of IFN-gamma, mouse splenocytes were treated as described above, with the intention to monitor levels of IFN-gamma by Elispot asssy. Identical conditions and concentrations of oligonucleotides where used.
as §4

human PBMC [6] = assay: Induction of IL-10 from healthy human PBMC (ELISpot); assay type: cell-based; details: PBMC from 5 healthy individuals, 48 hours; for induction of IL-10 producing cells: FIG. 11
Method: (§5) Whole blood was obtained from healthy blood donors. PBMCs were prepared from 30 ml whole blood according to the following protocol:
(§6) 30 ml blood was transferred directly into heparinized tubes. All blood was transferred into one 50 ml Falcon tube and PBS added up to 50 ml. 15 ml Ficoll (17-1440-03, obtained from Amersham Bioscience AB, Uppsala) was then added into two falcon tubes (50 ml). The PBS-treated blood was then carefully added on the top of to Ficoll, 25 ml to each tube. The tubes were then centrifuged 25 min at 1700 RPM at RT (20° C.).
(§7) RPMIc medium was prepared under sterile conditions, using a 0.22 uM filter. (RPMIc denotes a RPMI 1640 culture medium (R0883, Sigma) supplemented with 5% heat-inactivated (56° C.,1 h) FCS 1.5 mM L-glutamine (G7513, Sigma), 100 U/ml penicillin and 100 ug/ml streptomycin, PEST (P0781, Sigma), hepes (H0887, Sigma), and gentamycin (G1272, Sigma)).
(§8) The interphase was carefully pipetted from the two tubes into 2x 50mi Falcon tubes. PBS was added up to 50 ml in each tube, and the tubes centrifuged for 10 min at 1700 RPM (4° C.).
(§9) The supernatant was discarded, and PBS added to 30 ml, whereupon the tubes were centrifuged at 10 min at 1500 RPM (4° C.). Again, the supernatant was discarded, 10 ml PBS added, and the pellets from the two falcon tubes pooled.
(§10) The cells were counted and left in PBS, then centrifuged at 1200 RPM, 10 min. Medium was then added to obtain the concentration of interest, and the cells counted (16 squares)×3. The mean value was calculated and multiplied with the dilution factor×10^4=cells/ml. Diluting the cells to 10 million/ml will result in 500.000 cells/50 ul medium, 6 million/ml will be 300.000/50 ul medium.
as §4
Approximately 500,000 PBMC cells per well, derived from blood from healthy human donors, were incubated for 48 hours in the presence of the different oligonucleotides. Specifically, SEQ.ID.NO 1, SEQ.ID.NO 2, SEQ.ID.NO 6 and SEQ.ID.NO 8. Following incubation, the wells were developed according to the kit supplier's recommendations and the average number of positive cells producing IL-10 per well were counted using an AID ELISpot reader system, (Autoimmun Diagnostika GmbH, Strassberg, Germany).

human PBMC [7] = assay: Induction of IFN-gamma from healthy human PBMC (ELISpot); assay type: cell-based; details: PBMC from 7 healthy individuals, 48 hours, FIG. 12
Method: as §5, §6
as §7, with “Sigma)). […]” for “Sigma)).”
The cells were counted and left in PBS, then centrifuged at 1200 RPM, 10 min. Medium was then added to obtain the concentration of interest, and the cells counted (16 squares)×3. The mean value was calculated and multiplied with the dilution factor×10^4=cells/ml. […]
Elispot assays where performed according to the manufactures recommended guidelines (MabTech) and the plates were analyzed using an AID ELISpot reader system (Autoimmun Diagnostika GmbH, Strassberg, Germany). […]

human PBMC [8] = assay: Induction of IFN-alpha from healthy human PBMC (ELISpot); assay type: cell-based; details: PBMC from 10 healthy individuals, 48 hours; for induction of IFN-alpha producing cells: FIG. 13
Method: as §5, §6, §7, §8, §9, §10, §4
For this assay again 500,000 PBMC cells per well, derived from healthy human blood were incubated for 48 hours in the presence of the different oligonucleotides. Specifically, SEQ.ID.NO 1, SEQ.ID.NO 2, and SEQ.ID.NO 8. Following incubation, the wells were developed according to the kit suppliers recommendations and the average number of positive cells producing IFN-alpha per well were determined using an AID ELISpot reader.

Substance | influx of leukocytes in BALF compared to the control group [3] | influx of neutrophils in BALF compared to the control group [3] | number of infiltrating inflammatory cells in the BAL fluid [3] | concentration at which IL-10 producing cells are first induced (murine spleen cells [4]) [µM] | induction of IL-10 (positive spots per well) (murine spleen cells [4]) | induction of IFN-gamma compared to medium alone (murine spleen cells [5]) | induction of IL-10 producing cells (human PBMC [6]) | induction of IFN-alpha producing cells (human PBMC [8]) | further results
5′-G*A*A*ACAGATCGTCCAT*G*G*T-3′ (antisense GAAACAGATCGTCCATGGT; listed as DNA, chemistry not fully specified) [SEQ.ID.NO 3, (Mu p65)AS, CpG-containing ODN] | significantly reduced inflammatory response | significantly reduced inflammatory response | reduced numbers of infiltrating inflammatory cells | 5 | induce significant levels of IL-10 | capable of inducing significant levels of IFN-gamma |  |  | reduction in the number of recovered neutrophils in BAL ([1]; 150 μg by tracheal instillation 18 h prior to LPS, BALF 20 h after LPS): more than 50%; anti-inflammatory effect compared with dexamethasone ([1]; 150 μg intratracheal vs dexamethasone 10 mg/kg i.p. 1 h prior to LPS): at least as powerful as high-dose treatment with dexamethasone; neutrophils in BALF / neutrophilic response in the airways ([1]; 25, 100 or 150 μg by tracheal instillation 18 h prior to 5 μg LPS, BALF 20 h after LPS): dose-dependent reduction; also recorded: significantly reduced neutrophilic response; reduction in BAL fluid cell number verses control [2]: approximately 50%
5′-G*A*A*ACAGATGCTCCAT*G*G*T-3′ (antisense GAAACAGATGCTCCATGGT; listed as DNA, chemistry not fully specified) [SEQ.ID.NO 4, (Mu p65 rev)AS] | no effect | no effect | little effect |  | no induction | no such inducing potential |  |  | 
5′-G*G*A*ACAGTTGCTCCAT*G*G*C-3′ (antisense GGAACAGTTGCTCCATGGC; listed as DNA, chemistry not fully specified) [SEQ.ID.NO 2, (Hu p65 rev)AS] |  |  |  |  |  |  | failed to induce IL-10 | fails to induce any measurable levels of IFN-alpha | concentration from which IL-10 producing cells are induced (human PBMC [6]): around 100 uM; induction of IFN-gamma producing cells versus background (human PBMC [7]): background level is not exceeded
5′-G*G*T GCA TCG ATG CAG*G*G*G*G*G-3′ (GGTGCATCGATGCAGGGGGG; listed as DNA, chemistry not fully specified) [SEQ.ID.NO 6] |  |  |  |  |  |  | strong potential to induce IL-10 |  | 
5′-T*C*C*A*T*G*A*C*G*T*T*C*C*T*G*A*C*G*T*T-3′ [SEQ.ID.NO 7] |  |  | more dramatic level of inhibition being as effective as dexamethasone | 0.1 | induce significant levels of IL-10 | capable of inducing significant levels of IFN-gamma |  |  | 
5′-T*C*G*T*C*G*T*T*T*T*G*T*C*G*T*T*T*T*G*T*C*G*T*T-3′ [SEQ.ID.NO 8] |  |  |  |  |  |  | strong potential to induce IL-10 | strong potential to induce IFN-alpha | concentration at which induction of IFN-alpha starts / is apparent (human PBMC [8]): 0.1 µM
